# Measurements published in patent US20260191194A1, “OXABICYCLOALKANE COMPOUNDS, PREPARATION METHOD THEREFOR, AND HERBICIDAL COMPOSITION AND USE THEREOF” (QINGDAO KINGAGROOT CHEMICAL COMPOUND CO., LTD., priority 2022, published 2026).
# Experiments:
# Format in all cases: in vivo
# [1] = system: Digitaria ischaemum; experiment: Activity test of compositions, soil sealing treatment (S); conditions: 21 days after treatment
# Text: (§1) The required active ingredient B was purchased from a reagent company or synthesized by a known method. The technical materials were all dissolved with acetone solvents and diluted with an aqueous solution of 0.1% Tween 80 emulsifier, which were to be used immediately after dilution.
# The test soil was quantitatively filled to 3/4 of the pot, and then watered from the bottom of the pot to completely wet the soil to saturation. The test weed seeds were accelerated to just germinate, and then evenly and quantitatively sowed on the soil surface, covered with 0.5-1 cm soil according to the sizes of the seeds, and ready for use 72 hours after sowing.
# (§2) Each treatment was repeated 4 times. Four pots with 20 weed seeds sowed per pot were treated each time.
# (§3) The well-sowed test materials were evenly placed on a platform with an area of 0.5 m^2, and foliage spraying was carried out by the 3WP-2000-type walking spray tower at a dosage of 450 kg/ha and a spray pressure of 0.3 MPa. After all the solution was sprayed, the air valve was closed, and 30 seconds later, the door of the spray tower was opened, and the nutritional bowl was taken out. Then the air valve was opened, and the spray tube was cleaned by spraying 50 ml of water.
# (§4) A method for investigating absolute numbers was employed. Whole seedlings of survival weeds were cut off with a blade along the soil surface, and the fresh weight of the weeds was weighed using an analytical balance. For dead weeds, the fresh weight thereof was zero.
# (§5) The investigation was performed 21 days after the treatment for once in total.
# (§6) The theoretical fresh weight inhibition rate of a mixed combination of each treatment was calculated by the Gowing method (E0=X+Y−X*Y/100). […] An optimal ratio was determined according to the actual control effects, characteristics of herbicides, and balance of the formulation. In the formula, X represents the fresh weight inhibition rate of the active ingredient A in a dosage of P; Y represents the fresh weight inhibition rate of the active ingredient B in a dosage of Q. The statistical results are shown in Table 4.
# [2] = system: Echinochloa glabrescens; experiment: as above; conditions: 21 days after treatment
# Protocol: as §1
# (§7) Weeds were cultivated in a controllable sunlight greenhouse at 20 to 30° C., in natural light, and with relative humidity of 57% to 72%. […] The test soil was quantitatively filled to 3/4 of the pot, and then watered from the bottom of the pot to completely wet the soil to saturation. The test weed seeds were accelerated to just germinate, and then evenly and quantitatively sowed on the soil surface, covered with 0.5-1 cm soil according to the sizes of the seeds, and ready for use 72 hours after sowing.
# as §2, §3, §4, §5, §6
# [3] = system: Arivela viscosa; experiment: as above; conditions: 21 days after treatment
# Protocol: as §1, §7, §2, §3, §4, §5, §6
# [4] = system: Cyperus glomeratus; experiment: as above; conditions: 21 days after treatment
# Protocol: as §1, §7, §2, §3, §4, §5, §6
# [5] = system: Echinochloa crus-galli var. austrojaponensis; experiment: Activity test of compositions, early post-emergence foliage spray (F-EP); conditions: 21 days after treatment; for pest or weed control at 300 g/ha: B alone 300 g a.i./ha; for pest or weed control at 450 g/ha: B alone 450 g a.i./ha
# Protocol: as §1
# (§8) Weeds were cultivated by a pot culture method. […] Weed seeds with plump and uniform grains were selected, soaked in lukewarm water at 25° C. for 6 hours, and accelerated to germinate in a 28° C. biochemical incubator (in darkness). The weed seeds that had just germinated were evenly placed on the surface of the soil and then covered with 0.5-1 cm soil according to the sizes of seeds.
# (§9) The culture was carried out in a controllable sunlight greenhouse at 20 to 30° C., in natural light, and with relative humidity of 57% to 72%.
# as §2
# (§10) The agents were used once in total in the experiment. In the stage of 1-2 leaves, the weeds were thinned out to maintain 10 strains per treatment for later use.
# as §3, with “well-cultured” for “well-sowed”, “water. The test materials were transferred to and routinely cultured in a greenhouse after the treatment.” for “water.”
# as §4, §5, §6
# [6] = system: Oxybasis glauca; experiment: Activity test of compositions, soil sealing treatment (S); conditions: 21 days after treatment
# Protocol: as §1, §7, §2, §3, §4, §5, §6
# [7] = system: Soliva anthemifolia; experiment: Activity test of compositions, early post-emergence foliage spray (F-EP); conditions: 21 days after treatment
# Protocol: as §1, §8, §9, §2, §10
# as §3, with “well-cultured” for “well-sowed”, “water. The test materials were transferred to and routinely cultured in a greenhouse after the treatment.” for “water.”
# as §4, §5, §6
# [8] = system: Echinochloa glabrescens; experiment: as above; conditions: 21 days after treatment
# Protocol: as §1, §8, §9, §2, §10
# as §3, with “well-cultured” for “well-sowed”, “water. The test materials were transferred to and routinely cultured in a greenhouse after the treatment.” for “water.”
# as §4, §5, §6
# [9] = system: Cyperus glomeratus; experiment: as above; conditions: 21 days after treatment
# Protocol: as §1, §8, §9, §2, §10
# as §3, with “well-cultured” for “well-sowed”, “water. The test materials were transferred to and routinely cultured in a greenhouse after the treatment.” for “water.”
# as §4, §5, §6
# [10] = Echinochloa crus-galli, 504 h, read-out: Control effect of B applied alone in a corresponding dose
# [11] = B alone 30 g a.i./ha (with A 60)
molecule,measurement,setting,value
Cn1nc(C(F)(F)F)c(CS(=O)(=O)C2=NOC(C)(C)C2)c1OC(F)F [pyroxasulfone],Control effect of B applied alone in a corresponding dose,[1]; B alone 45 g a.i./ha,46.3
COP(=S)(OC)SCC(=O)N(c1ccc(Cl)cc1)C(C)(C)C [anilofos],Control effect of B applied alone in a corresponding dose,[2]; B alone 75 g a.i./ha,37.2
O=C(Nc1ccc(F)cc1F)c1cccnc1Oc1cccc(C(F)(F)F)c1 [diflufenican],Control effect of B applied alone in a corresponding dose,[3]; B alone 52.5 g a.i./ha,65.8%
"CCOC(=O)c1cnn(C)c1S(=O)(=O)NC(=O)Nc1nc(OC)cc(OC)n1 [pyrazosulfuronethyl, pyrazosulfuron-ethyl]",Control effect of B applied alone in a corresponding dose,[4]; B alone 7.5 g a.i./ha,29.8%
CCN(C(=O)n1nnn(-c2ccccc2Cl)c1=O)C1CCCCC1 [fentrazamide],Control effect of B applied alone in a corresponding dose,[2]; B alone 75 g a.i./ha,40.3
CC(C)c1ccc(NC(=O)N(C)C)cc1 [isoproturon],pest or weed control at 300 g/ha,[5]; [10],31.3%
CSc1nc(NC(C)C)nc(NC(C)C)n1 [prometryn],pest or weed control at 300 g/ha,[5]; [10],41%
C#CCN1C(=O)COc2cc(F)c(N3C(=O)C4=C(CCCC4)C3=O)cc21 [flumioxazin],Control effect of B applied alone in a corresponding dose,[6]; B alone 30 g a.i./ha,55.6
oxadiargyl,Control effect of B applied alone in a corresponding dose,[4]; B alone 45 g a.i./ha,42.5%
CC(C)Oc1cc(-n2nc(C(C)(C)C)oc2=O)c(Cl)cc1Cl [oxadiazon],Control effect of B applied alone in a corresponding dose,[4]; B alone 90 g a.i./ha,32.4%
CCNc1nc(Cl)nc(NC(C)(C)C)n1 [terbuthylazine],pest or weed control at 225 g/ha,"[5]; Echinochloa crus-galli, 504 h, B alone 225 g a.i./ha, read-out: Control effect of B applied alone in a corresponding dose",48.4%
COc1cnc(OC)n2nc(NS(=O)(=O)c3c(OCC(F)F)cccc3C(F)(F)F)nc12 [penoxsulam],Control effect of B applied alone in a corresponding dose,[4]; B alone 7.5 g a.i./ha,26.4%
Cc1nn(C)cc1C(=O)Oc1c(C(=O)c2ccc(C(F)(F)F)cc2S(C)(=O)=O)c(C)nn1C [bipyrazone],Control effect of B applied alone in a corresponding dose,[5]; [11],52.7%
"COc1c(Cl)ccc(-c2nc(C(=O)OCc3ccccc3)c(Cl)c(N)c2F)c1F [florpyrauxifenbenzyl, florpyrauxifen-benzyl]",Control effect of B applied alone in a corresponding dose,[7]; B alone 7.5 g a.i./ha,60.2%
CC1(C)CON(Cc2ccc(Cl)cc2Cl)C1=O [bixlozone],Control effect of B applied alone in a corresponding dose,[3]; B alone 120 g a.i./ha,74.5%
C#CCN(C)c1c(C#N)cnn1-c1nn2c(c1Cl)CCCC2 [pyraclonil],Control effect of B applied alone in a corresponding dose,[4]; B alone 45 g a.i./ha,48.6%
CCn1ncc(C(=O)c2ccc(S(C)(=O)=O)c(COCC(F)(F)F)c2Cl)c1OC(=O)c1cn(C)nc1C [fenpyrazone],Control effect of B applied alone in a corresponding dose,[5]; [11],53.1%
"COC(=O)c1sccc1S(=O)(=O)NC(=O)Nc1nc(C)nc(OC)n1 [thifensulfuronmethyl, thifensulfuron-methyl]",Control effect of B applied alone in a corresponding dose,[6]; B alone 7.5 g a.i./ha,68.6
CCCCOC(=O)[C@@H](C)Oc1ccc(Oc2ccc(C#N)cc2F)cc1 [cyhalofop-butyl],Control effect of B applied alone in a corresponding dose,[8]; B alone 150 g a.i./ha,46.6%
CS(=O)(=O)c1ccc(C(=O)C2C(=O)CCCC2=O)c([N+](=O)[O-])c1 [mesotrione],pest or weed control at 60 g/ha,"[5]; Echinochloa crus-galli, 504 h, B alone 60 g a.i./ha (with A 60), read-out: Control effect of B applied alone in a corresponding dose",51.7%
CCCCOCN(C(=O)CCl)c1c(CC)cccc1CC [butachlor],Control effect of B applied alone in a corresponding dose,[2]; B alone 300 g a.i./ha,41.3
CC(C)N(C(=O)SCC(Cl)=C(Cl)Cl)C(C)C [triallate],Control effect of B applied alone in a corresponding dose,[1]; B alone 300 g a.i./ha,38.4
C[C@@H](Oc1ccc(Oc2nc3ccc(Cl)cc3o2)cc1)C(=O)N(C)c1ccccc1F [metamifop],Control effect of B applied alone in a corresponding dose,[8]; B alone 75 g a.i./ha,58.8%
CCOCN(C(=O)CCl)c1c(C)cccc1CC [acetochlor],Control effect of B applied alone in a corresponding dose,[1]; B alone 300 g a.i./ha,41.3
"CC(C)CCCCCOC(=O)COc1ccc(Cl)cc1Cl [2,4-D-isooctyl]",Control effect of B applied alone in a corresponding dose,[7]; B alone 225 g a.i./ha,61.4%
Cc1cc(C)n(Cc2c(S(C)(=O)=O)ccc(C(=O)c3c(C)nn(C)c3OC(=O)c3cn(C)nc3C)c2Cl)n1 [tripyrasulfone],Control effect of B applied alone in a corresponding dose,[5]; B alone 60 g a.i./ha,50.4%
CN(C(=O)COc1nc2ccccc2s1)c1ccccc1 [mefenacet],Control effect of B applied alone in a corresponding dose,[2]; B alone 150 g a.i./ha,37.9
Cc1ccc(NC(=O)N(C)C)cc1Cl [chlorotoluron],pest or weed control at 450 g/ha,[5]; [10],37.6%
CS(=O)(=O)c1ccc(C(=O)C2=C(Sc3ccccc3)C3CCC(C3)C2=O)c(Cl)c1 (centres unmarked) [benzobicyclon],Control effect of B applied alone in a corresponding dose,[5]; B alone 60 g a.i./ha,48.7%
CC[C@H](Oc1ccc(F)c(C(F)(F)F)c1)C(=O)NCc1ccccc1 [beflubutamid-M],Control effect of B applied alone in a corresponding dose,[3]; B alone 90 g a.i./ha,55.2%
CC1=C(c2ccccc2)C(=O)N(C(C)(C)c2cc(Cl)cc(Cl)c2)CO1 [oxaziclomefone],Control effect of B applied alone in a corresponding dose,[4]; B alone 22.5 g a.i./ha,58.5%
CCOc1cc(Oc2ccc(C(F)(F)F)cc2Cl)ccc1[N+](=O)[O-] [oxyfluorfen],Control effect of B applied alone in a corresponding dose,[4]; B alone 45 g a.i./ha,37.2%
CC(C)N1C(=O)c2ccccc2NS1(=O)=O [bentazone],Control effect of B applied alone in a corresponding dose,[9]; B alone 300 g a.i./ha,43.8
CC1(C)CON(Cc2ccccc2Cl)C1=O [clomazone],Control effect of B applied alone in a corresponding dose,[3]; B alone 75 g a.i./ha,70.6%
Nc1c(Cl)c(F)nc(OCC(=O)O)c1Cl [fluroxypyr],Control effect of B applied alone in a corresponding dose,[7]; B alone 75 g a.i./ha,66.7%
Cc1ccn2nc(S(=O)(=O)Nc3c(F)cccc3F)nc2n1 [flumetsulam],Control effect of B applied alone in a corresponding dose,[6]; B alone 15 g a.i./ha,57.9
CSc1nnc(C(C)(C)C)c(=O)n1N [metribuzin],pest or weed control at 150 g/ha,"[5]; Echinochloa crus-galli, 504 h, B alone 150 g a.i./ha, read-out: Control effect of B applied alone in a corresponding dose",42.9%
CCC(CC)Nc1c([N+](=O)[O-])cc(C)c(C)c1[N+](=O)[O-] [pendimethalin],Control effect of B applied alone in a corresponding dose,[1]; B alone 375 g a.i./ha,65.7
CCNc1nc(Cl)nc(NC(C)C)n1 [atrazine],pest or weed control at 450 g/ha,[5]; [10],43.4%
"COC(=O)c1ccccc1CS(=O)(=O)NC(=O)Nc1nc(OC)cc(OC)n1 [bensulfuronmethyl, bensulfuron-methyl]",Control effect of B applied alone in a corresponding dose,[4]; B alone 7.5 g a.i./ha,27.5%
Cc1cc(Cl)ccc1OCC(=O)OCCCCCC(C)C [MCPA-isooctyl],Control effect of B applied alone in a corresponding dose,[7]; B alone 300 g a.i./ha,65%
CCCC(=NOCC(C)Oc1ccc(Cl)cc1)C1=C(O)CC(C2CCCSC2)CC1=O (centres unmarked) [profoxydim],Control effect of B applied alone in a corresponding dose,[8]; B alone 45 g a.i./ha,54.7%
CCC(C)Nc1c([N+](=O)[O-])cc(C(C)(C)C)cc1[N+](=O)[O-] (centres unmarked) [butralin],Control effect of B applied alone in a corresponding dose,[1]; B alone 900 g a.i./ha,60.2
CCC(=O)Nc1ccc(Cl)c(Cl)c1 [propanil],Control effect of B applied alone in a corresponding dose,[9]; B alone 900 g a.i./ha,19.7
CS(=O)(=O)c1cc(C(F)(F)F)ccc1C(=O)c1cnoc1C1CC1 [isoxaflutole],pest or weed control at 30 g/ha,"[5]; Echinochloa crus-galli, 504 h, B alone 30 g a.i./ha (with A 60), read-out: Control effect of B applied alone in a corresponding dose",47.8%
CCCOCCN(C(=O)CCl)c1c(CC)cccc1CC [pretilachlor],Control effect of B applied alone in a corresponding dose,[2]; B alone 150 g a.i./ha,43.6
CS(=O)(=O)c1ccc(C(=O)C2C(=O)CCCC2=O)c(Cl)c1COCC1CCCO1 (centres unmarked) [tefuryltrione],Control effect of B applied alone in a corresponding dose,[5]; B alone 15 g a.i./ha,51.7%
